Converted amounts (≈) assume the structure as drawn. Where two headings read alike, the source gives them in different places.
Columns and labels:
Staph.aureus A 355 [1] = assay: agar serial dilution test; conditions: Staphylococcus aureus, A355, 24 h
Esch.coli U 20 = assay: agar serial dilution test; type: cell-based, Escherichia coli; conditions: Escherichia coli
Bruc. Suis A 2126 = assay: agar serial dilution test; type: cell-based; conditions: Brucella suis, 24 h, read-out: minimal inhibitory concentration (MIC)
Past.multo. A 723 = assay: agar serial dilution test; type: cell-based, Pasteurella multocida; conditions: Pasteurella multocida, read-out: minimal inhibitory concentration (MIC)
Salm.typh. R 172 = assay: agar serial dilution test; type: cell-based; conditions: 24 h, read-out: minimal inhibitory concentration (MIC)
Pseud.aerug. H 10 = assay: agar serial dilution test; type: cell-based; conditions: read-out: minimal inhibitory concentration (MIC)
Prot.mirab. A 1200 = assay: agar serial dilution test; type: cell-based, Proteus mirabilis; conditions: Proteus mirabilis, 24 h, agar serial dilution, 24 hours, 37° C.; read-out: minimal inhibitory concentration (MIC)
Bac.Subt.ATCC 6633 = assay: agar serial dilution test; type: cell-based, Bacillus subtilis; conditions: Bacillus subtilis, ATCC6633, 24 h, read-out: minimal inhibitory concentration (MIC)
Pseud.aerug. 2396 = assay: agar serial dilution test; type: cell-based; conditions: read-out: minimal inhibitory concentration (MIC)
Dipl.pneum. L 54 = assay: agar serial dilution test; type: cell-based, Diplococcus pneumoniae; conditions: Streptococcus pneumoniae, read-out: minimal inhibitory concentration (MIC)
Strep.haem A 1088 = assay: agar serial dilution test; type: cell-based, Streptococcus haemolyticus; conditions: Streptococcus, A1088, 24 hours, 37° C., read-out: minimal inhibitory concentration (MIC)
Salm.dubl. P 43 = assay: agar serial dilution test; type: cell-based, Salmonella dublin; conditions: Salmonella enterica, read-out: minimal inhibitory concentration (MIC)
Staph.aureus A 2001 [2] = assay: micro serial dilution test; type: cell-based, Staphylococcus aureus; conditions: Staphylococcus aureus, A2001, 18 h, micro serial dilution (in brackets), about 18 hours, 30° C. or 37° C.; read-out: minimal inhibitory concentration (MIC)
Haem.Suis A 2096 = assay: micro serial dilution test; type: cell-based; conditions: micro serial dilution (in brackets), about 18 hours, 30° C. or 37° C.; read-out: minimal inhibitory concentration (MIC)
Staph.aureus A 355 [3] = assay: micro serial dilution test; type: cell-based, Staphylococcus aureus; conditions: Staphylococcus aureus, A355; micro serial dilution (in brackets), about 18 hours, 30° C. or 37° C.; penicillinase-producing strain; read-out: minimal inhibitory concentration (MIC)
Actinob.equ. T 3 = assay: agar serial dilution test; type: cell-based; conditions: 24 hours, 37° C., read-out: minimal inhibitory concentration (MIC)
Prot.rettg. A 821 = assay: agar serial dilution test; type: cell-based, Proteus rettgeri; conditions: Providencia rettgeri, 24 h, read-out: minimal inhibitory concentration (MIC)
Staph.aureus A 2000 [4] = assay: micro serial dilution test; type: cell-based, Staphylococcus aureus; conditions: Staphylococcus aureus, A2000, 18 h, micro serial dilution (in brackets), about 18 hours, 30° C. or 37° C.; read-out: minimal inhibitory concentration (MIC)
Strep. faec. L 80 = assay: agar serial dilution test; type: cell-based, Streptococcus faecalis; conditions: Enterococcus faecalis, read-out: minimal inhibitory concentration (MIC)
Prot.mirab. L 93 = assay: agar serial dilution test; type: cell-based, Proteus mirabilis; conditions: Proteus mirabilis
Staph.aureus A 321 = assay: agar serial dilution test; type: cell-based, Staphylococcus aureus; conditions: Staphylococcus aureus, A321, 24 h, read-out: minimal inhibitory concentration (MIC)
Staph.aureus A 2001 [5] = assay: agar serial dilution test; type: cell-based, Staphylococcus aureus; conditions: Staphylococcus aureus, A2001, 24 h, agar serial dilution, 24 hours, 37° C.; read-out: minimal inhibitory concentration (MIC)
Prot.morg. 2241 = assay: agar serial dilution test; type: cell-based; conditions: 24 h, read-out: minimal inhibitory concentration (MIC)
Staph.aureus A 2000 [6] = assay: agar serial dilution test; type: cell-based, Staphylococcus aureus; conditions: Staphylococcus aureus, A2000, 24 h, read-out: minimal inhibitory concentration (MIC)
[7] = test system: Pseud.aerug. Wyeth A 1058; assay: agar serial dilution test; type: cell-based; conditions: read-out: minimal inhibitory concentration (MIC)
Prot.mirab. H 3 = assay: agar serial dilution test; type: cell-based, Proteus mirabilis; conditions: Proteus mirabilis
Kleb.pneum. A 809 = assay: agar serial dilution test; type: cell-based, Klebsiella pneumoniae; conditions: Klebsiella pneumoniae, read-out: minimal inhibitory concentration (MIC)
Bruc.melit. A 488 = assay: microbe, parasite or virus in culture; type: cell-based; conditions: Brucella melitensis, 24 h, read-out: minimal inhibitory concentration (MIC)
Shig.equir. T 3 = assay: agar serial dilution test; type: cell-based; conditions: 24 h, 37° C., read-out: minimal inhibitory concentration (MIC)
Strep.haem. A 266 = assay: agar serial dilution test; type: cell-based, Streptococcus haemolyticus; conditions: Streptococcus, read-out: minimal inhibitory concentration (MIC)
Haem.infl. A 1030 [8] = assay: micro serial dilution test; type: cell-based; conditions: 18 h, read-out: minimal inhibitory concentration (MIC)
Haem.infl. A 1030 [9] = assay: agar serial dilution test; type: cell-based; conditions: 24 hours, 37° C., read-out: minimal inhibitory concentration (MIC)
Salm.typh. R 127 = assay: micro serial dilution test; type: cell-based; conditions: micro serial dilution (in brackets), about 18 hours, 30° C. or 37° C.; read-out: minimal inhibitory concentration (MIC)
From the text: Two drops of a stock solution of the test compound (antibiotic) in a known concentration were brought into the first hole of a test plate with 9 numbered holes with a sterile Pasteur pipette. After rinsing this pipette three times with a physiological NaCl-solution, two drops of a stock solution of the test organism in a culture medium were brought in all the holes except for hole 8. In the first hole, the solution of the tested compound had been half diluted, then by stirring the liquid in the first hole and adding two drops of this mixture to the second hole and so on until hole 8, dilutions of the test compound solution were obtained in geometrical progression. The hole 9 contained no antibiotic and served for checking the growth of the testogranism in a blank medium. The test plate was incubated at 30° C. or 37° C. for about 18 hours.

pKa determined in water = type: physicochemical
[10] = read-out: minimal inhibitory concentration (MIC), agar serial dilution, 24 hours, 37° C., penicillinase-producing strain
[11] = U20, agar serial dilution, 24 hours, 37° C., read-out: minimal inhibitory concentration (MIC)
[12] = agar serial dilution, 24 hours, 37° C.
[13] = agar serial dilution, 24 hours, 37° C., read-out: minimal inhibitory concentration (MIC)
[14] = 24 h, read-out: minimal inhibitory concentration (MIC), agar serial dilution, 24 hours, 37° C.

Structure (SMILES)	MIC (Staph.aureus A 355 [1]; [10])	MIC (Esch.coli U 20; [11])	MIC (Past.multo. A 723; [12])	MIC (Pseud.aerug. H 10; [12])	MIC (Bac.Subt.ATCC 6633; [12])	MIC (Pseud.aerug. 2396; [12])	MIC (Dipl.pneum. L 54; [12])	MIC (Salm.dubl. P 43; [12])	MIC (Prot.rettg. A 821; [12])	MIC (Strep. faec. L 80; [12])	MIC (Prot.mirab. L 93; [13])	MIC (Staph.aureus A 321; [12])	MIC (Staph.aureus A 2001 [5])	MIC (Prot.morg. 2241; [12])	MIC (Staph.aureus A 2000 [6]; [12])	MIC [7, 12]	MIC (Prot.mirab. H 3; [13])	MIC (Kleb.pneum. A 809; [12])	MIC (Bruc.melit. A 488)	MIC (Shig.equir. T 3)	further results
CCc1nc(CC(=O)N[C@@H]2C(=O)N3C(C(=O)O)=C(CSc4nnc(C)s4)CS[C@H]23)no1 [41 A, Sodium 7-[5-ethyl-1,2,4-oxadiazol-3-yl-acetamido]-3-[5-methyl-1,3,4-thiadiazol-2-yl-mercaptomethyl]-3-cephem-4-carboxylate]	0.75 µg/mL	3 µg/mL	1.5 µg/mL	100 µg/mL	0.25 µg/mL	100 µg/mL	0.75 µg/mL	12.5 µg/mL	1.5 µg/mL	50 µg/mL	6 µg/mL	0.25 µg/mL	0.5 µg/mL	100 µg/mL	0.5 µg/mL	100 µg/mL	100 µg/mL	6 µg/mL	–	–	MIC (Bruc. Suis A 2126): 6 µg/mL; MIC (Salm.typh. R 172): 50 µg/mL; MIC (Prot.mirab. A 1200): 100 µg/mL; MIC (Strep.haem A 1088): 0.06 µg/mL; MIC (Staph.aureus A 2001 [2]): 0.15 µg/mL; MIC (Haem.Suis A 2096): 15 µg/mL; MIC (Staph.aureus A 355 [3]): 0.3 µg/mL; MIC (Actinob.equ. T 3): 12.5 µg/mL; MIC (Staph.aureus A 2000 [4]): 0.23 µg/mL
CC1(C)S[C@@H]2[C@H](NC(=O)[C@H](N)c3ccccc3)C(=O)N2[C@H]1C(=O)O [Ampicillin, reference compound]	6 µg/mL (≈ 17.2 µM)	3 µg/mL (≈ 8.59 µM)	0.25 µg/mL (≈ 0.715 µM)	125 µg/mL (≈ 358 µM)	0.03 µg/mL (≈ 0.0859 µM)	12.5 µg/mL (≈ 35.8 µM)	0.06 µg/mL (≈ 0.172 µM)	1.5 µg/mL (≈ 4.29 µM)	3 µg/mL (≈ 8.59 µM)	1 µg/mL (≈ 2.86 µM)	0.15 µg/mL (≈ 0.429 µM)	0.12 µg/mL (≈ 0.343 µM)	1 µg/mL (≈ 2.86 µM)	12.5 µg/mL (≈ 35.8 µM)	1.5 µg/mL (≈ 4.29 µM)	> 100 µg/mL	0.9 µg/mL (≈ 2.58 µM)	25 µg/mL (≈ 71.5 µM)	1 µg/mL (≈ 2.86 µM)	1 µg/mL (≈ 2.86 µM)	MIC (Strep.haem. A 266; [12]): < 0.015 µg/mL; MIC (Haem.infl. A 1030 [8]; micro serial dilution (in brackets), about 18 hours, 30° C. or 37° C.): 0.5 µg/mL (≈ 1.43 µM); MIC (Haem.infl. A 1030 [9]): < 125 µg/mL
CC1=C(C(=O)O)N2C(=O)[C@@H](NC(=O)[C@H](N)c3ccccc3)[C@H]2SC1 [Cefalexin, reference compound]	–	–	–	–	–	–	–	–	–	–	–	–	–	–	–	–	–	–	6 µg/mL (≈ 17.3 µM)	1.5 µg/mL (≈ 4.32 µM)	MIC (Staph.aureus A 355 [1]; read-out: minimal inhibitory concentration (MIC)): 12.5 µg/mL (≈ 36 µM); MIC (Strep.haem. A 266; 24 h): 0.25 µg/mL (≈ 0.72 µM); MIC (Esch.coli U 20; U20, 24 h, read-out: minimal inhibitory concentration (MIC), agar serial dilution, 24 hours, 37° C.): 12.5 µg/mL (≈ 36 µM); MIC (Past.multo. A 723; 24 h): 3 µg/mL (≈ 8.64 µM); MIC (Pseud.aerug. H 10; 24 h): > 100 µg/mL; MIC (Bac.Subt.ATCC 6633): 0.5 µg/mL (≈ 1.44 µM); MIC (Pseud.aerug. 2396; 24 h): > 100 µg/mL; MIC (Dipl.pneum. L 54; 24 h): 3 µg/mL (≈ 8.64 µM); MIC (Salm.dubl. P 43; 24 h): 6 µg/mL (≈ 17.3 µM); MIC (Haem.infl. A 1030 [8]): 125 µg/mL (≈ 360 µM); MIC (Prot.rettg. A 821): 12.5 µg/mL (≈ 36 µM); MIC (Strep. faec. L 80; 24 h): 100 µg/mL (≈ 288 µM); MIC (Prot.mirab. L 93; [14]): 12.5 µg/mL (≈ 36 µM); MIC (Staph.aureus A 321): 1.5 µg/mL (≈ 4.32 µM); MIC (Salm.typh. R 127): 6 µg/mL (≈ 17.3 µM); MIC (Prot.morg. 2241): > 100 µg/mL; MIC (Staph.aureus A 2000 [6]): 12.5 µg/mL (≈ 36 µM); MIC ([7]; 24 h): > 100 µg/mL; MIC (Prot.mirab. H 3; [14]): 25 µg/mL (≈ 72 µM); MIC (Kleb.pneum. A 809; 24 h): 3 µg/mL (≈ 8.64 µM)
Cc1noc(CC(=O)O)n1 [Example 1, 3-methyl-1,2,4-oxadiazol-5-yl-acetic acid]	–	–	–	–	–	–	–	–	–	–	–	–	–	–	–	–	–	–	–	–	pKa (pKa determined in water): 3.64
Cc1nc(CC(=O)O)no1 [Example 4, 5-methyl-1,2,4-oxadiazol-3-yl-acetic acid]	–	–	–	–	–	–	–	–	–	–	–	–	–	–	–	–	–	–	–	–	pKa (pKa determined in water): ~3.4
CC1(C)S[C@@H]2[C@H](NC(=O)Cc3nc(-c4c(Cl)cccc4Cl)no3)C(=O)N2[C@H]1C(=O)O [Example 11A, 6-{[3-(2,6-dichlorophenyl)-1,2,4-oxadiazol-5-yl]-acetamido}penicillanic acid]	3 µg/mL (≈ 6.37 µM)	> 100 µg/mL	3 µg/mL (≈ 6.37 µM)	> 100 µg/mL	0.06 µg/mL (≈ 0.127 µM)	> 100 µg/mL	3 µg/mL (≈ 6.37 µM)	> 100 µg/mL	> 100 µg/mL	25 µg/mL (≈ 53 µM)	> 100 µg/mL	0.06 µg/mL (≈ 0.127 µM)	–	> 100 µg/mL	3 µg/mL (≈ 6.37 µM)	> 100 µg/mL	> 100 µg/mL	> 100 µg/mL	3 µg/mL (≈ 6.37 µM)	25 µg/mL (≈ 53 µM)	MIC (Strep.haem. A 266; [12]): 1 µg/mL (≈ 2.12 µM); MIC (Haem.infl. A 1030 [9]): 100 µg/mL (≈ 212 µM)

Source: patent publication US4160829A, “Antibacterial 1,2,4-oxadiazolylacetamido cephalosporins” (Gist-Brocades N.V., priority 1972, dated 1979)
